In patent publication US20260070945A1, “MACROCYCLIC IMMUNOMODULATORS” (Bristol-Myers Squibb Company, priority 2022, published 2026):
Where a SMILES comes first, the peptide text is derived from it. Bridges are numbered along the chain shown (N, C = ends). [ ]: non-standard residue; d: D form. The star is where a group is joined. Bip = N[C@@H](Cc1ccc(-c2ccccc2)cc1)C(=O)O; Phe(3-Me) = Cc1cccc(C[C@H](N)C(=O)O)c1; Cha = N[C@@H](CC1CCCCC1)C(=O)O; Carboxymethyl = O=C(O)C*; NMeA = CN[C@@H](C)C(=O)O; Orn = NCCC[C@H](N)C(=O)O; Aun = NCCCCCCCCCCC(=O)O; Dab = NCC[C@H](N)C(=O)O; AEEA = NCCOCCOCC(=O)O

What follows are compounds tested against T1, PD-1/PD-L1 interaction (PE-labeled human PD-L1-Ig binding to Jurkat cell line over-expressing human PD-1) (Homo sapiens, UniProt Q15116) (assay: Jurkat-PD-1 Cell Binding High-Content Screening Assay (CBA)). Conditions: Jurkat-hPD-1 cells, PE-labeled PD-L1-Ig 20 nM final; read-out: Jurkat HPD1 PDL1 IC50.
T1 construct: expressed in transfected cells; host or cells: Jurkat
T1 sequence (Q15116 25-288): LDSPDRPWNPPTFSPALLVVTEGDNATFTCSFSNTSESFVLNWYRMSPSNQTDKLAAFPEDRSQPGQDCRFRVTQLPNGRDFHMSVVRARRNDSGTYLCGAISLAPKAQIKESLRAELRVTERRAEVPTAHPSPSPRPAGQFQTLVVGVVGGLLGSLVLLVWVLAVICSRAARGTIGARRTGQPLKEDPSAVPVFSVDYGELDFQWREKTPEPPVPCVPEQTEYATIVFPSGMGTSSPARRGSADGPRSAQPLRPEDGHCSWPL
Procedure, shortened: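 Binding of 20 nM (final) PE-tagged PD-L1-Ig to compound-pretreated Jurkat-hPD-1 cells was measured by high-content imaging after 1 h. Pretreatment ran 2 h at 37 °C in DMEM with 10% fetal calf serum.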

Point of comparison: `Cc1cccc(C[C@@H]2NC(=O)[C@H](CC(=O)O)NC(=O)[C@H](Cc3ccc(OCC(=O)O)cc3)NC(=O)[C@H]([C@@H](C)O)NC(=O)CSC[C@@H](C(=O)N[C@@H](CCN)C(=O)NCCOCCOCC(=O)NCCCCCCCCCCC(=O)O)NC(=O)[C@H]([C@@H](C)O)NC(=O)[C@H](C(C)C)NC(=O)[C@H](CC3CCCCC3)NC(=O)[C@H](CCC(=O)O)NC(=O)[C@@H](CC(C)C)NC(=O)[C@H](C)N(C)C(=O)[C@H](Cc3ccc(OCC(=O)O)cc3)NC(=O)[C@H](Cc3ccc(-c4ccccc4)cc3)NC(=O)[C@H](Cc3ccc(OCC(=O)O)cc3)NC2=O)c1` [Example 1375] ({CH2CO}-TY(Carboxymethyl)D[Phe(3-Me)]Y(Carboxymethyl)[Bip]Y(Carboxymethyl)[NMeA][dL]E[Cha]VTC[Dab][AEEA][Aun]-OH; thioether N-14), IC50 31.8 nM. Against it:
- Cc1cccc(C[C@@H]2NC(=O)[C@H](CC(=O)O)NC(=O)[C@H](Cc3ccc(OCC(=O)O)cc3)NC(=O)[C@H]([C@@H](C)O)NC(=O)CSC[C@@H](C(=O)N[C@@H](CCCN)C(=O)NCCOCCOCC(=O)NCCCCCCCCCCC(=O)O)NC(=O)[C@H](CCC(=O)O)NC(=O)[C@H](C(C)C)NC(=O)[C@H](CC3CCCCC3)NC(=O)[C@H](CC(N)=O)NC(=O)[C@@H](CC(C)C)NC(=O)[C@H](C)N(C)C(=O)[C@H](Cc3ccc(OCC(=O)O)cc3)NC(=O)[C@H](Cc3ccc(-c4ccccc4)cc3)NC(=O)[C@H](Cc3ccc(OCC(=O)O)cc3)NC2=O)c1 [Example 1366] ({CH2CO}-TY(Carboxymethyl)D[Phe(3-Me)]Y(Carboxymethyl)[Bip]Y(Carboxymethyl)[NMeA][dL]N[Cha]VEC[Orn][AEEA][Aun]-OH; thioether N-14) — 4-fold higher, 128 nM
- Cc1cccc(C[C@@H]2NC(=O)[C@H](CC(=O)O)NC(=O)[C@H](Cc3ccc(OCC(=O)O)cc3)NC(=O)[C@H]([C@@H](C)O)NC(=O)CSC[C@@H](C(=O)N[C@@H](CCCN)C(=O)NCCOCCOCC(=O)NCCCCCCCCCCC(=O)O)NC(=O)[C@H](CO)NC(=O)[C@H](C(C)C)NC(=O)[C@H](CC3CCCCC3)NC(=O)[C@H](CC(N)=O)NC(=O)[C@@H](CC(C)C)NC(=O)[C@H](C)N(C)C(=O)[C@H](Cc3ccc(OCC(=O)O)cc3)NC(=O)[C@H](Cc3ccc(-c4ccccc4)cc3)NC(=O)[C@H](Cc3ccc(OCC(=O)O)cc3)NC2=O)c1 [Example 1367] ({CH2CO}-TY(Carboxymethyl)D[Phe(3-Me)]Y(Carboxymethyl)[Bip]Y(Carboxymethyl)[NMeA][dL]N[Cha]VSC[Orn][AEEA][Aun]-OH; thioether N-14) — 1.7-fold higher, 55.6 nM
- Cc1cccc(C[C@@H]2NC(=O)[C@H](CC(=O)O)NC(=O)[C@H](Cc3ccc(OCC(=O)O)cc3)NC(=O)[C@H]([C@@H](C)O)NC(=O)CSC[C@@H](C(=O)N[C@@H](CCN)C(=O)NCCOCCOCC(=O)NCCCCCCCCCCC(=O)O)NC(=O)[C@H](CO)NC(=O)[C@H](C(C)C)NC(=O)[C@H](CC3CCCCC3)NC(=O)[C@H](CCN)NC(=O)[C@@H](CC(C)C)NC(=O)[C@H](C)N(C)C(=O)[C@H](Cc3ccc(OCC(=O)O)cc3)NC(=O)[C@H](Cc3ccc(-c4ccccc4)cc3)NC(=O)[C@H](Cc3ccc(OCC(=O)O)cc3)NC2=O)c1 [Example 1368] ({CH2CO}-TY(Carboxymethyl)D[Phe(3-Me)]Y(Carboxymethyl)[Bip]Y(Carboxymethyl)[NMeA][dL][Dab][Cha]VSC[Dab][AEEA][Aun]-OH; thioether N-14) — 1.8-fold lower, 18.1 nM
- Cc1cccc(C[C@@H]2NC(=O)[C@H](CC(=O)O)NC(=O)[C@H](Cc3ccc(OCC(=O)O)cc3)NC(=O)[C@H]([C@@H](C)O)NC(=O)CSC[C@@H](C(=O)N[C@@H](CCN)C(=O)NCCOCCOCC(=O)NCCCCCCCCCCC(=O)O)NC(=O)[C@H](CCC(=O)O)NC(=O)[C@H](C(C)C)NC(=O)[C@H](CC3CCCCC3)NC(=O)[C@H](CCN)NC(=O)[C@@H](CC(C)C)NC(=O)[C@H](C)N(C)C(=O)[C@H](Cc3ccc(OCC(=O)O)cc3)NC(=O)[C@H](Cc3ccc(-c4ccccc4)cc3)NC(=O)[C@H](Cc3ccc(OCC(=O)O)cc3)NC2=O)c1 [Example 1369] ({CH2CO}-TY(Carboxymethyl)D[Phe(3-Me)]Y(Carboxymethyl)[Bip]Y(Carboxymethyl)[NMeA][dL][Dab][Cha]VEC[Dab][AEEA][Aun]-OH; thioether N-14) — 2.6-fold lower, 12 nM
- Cc1cccc(C[C@@H]2NC(=O)[C@H](CC(=O)O)NC(=O)[C@H](Cc3ccc(OCC(=O)O)cc3)NC(=O)[C@H]([C@@H](C)O)NC(=O)CSC[C@@H](C(=O)N[C@@H](CCN)C(=O)NCCOCCOCC(=O)NCCCCCCCCCCC(=O)O)NC(=O)[C@H](CC(N)=O)NC(=O)[C@H](C(C)C)NC(=O)[C@H](CC3CCCCC3)NC(=O)[C@H](CCN)NC(=O)[C@@H](CC(C)C)NC(=O)[C@H](C)N(C)C(=O)[C@H](Cc3ccc(OCC(=O)O)cc3)NC(=O)[C@H](Cc3ccc(-c4ccccc4)cc3)NC(=O)[C@H](Cc3ccc(OCC(=O)O)cc3)NC2=O)c1 [Example 1370] ({CH2CO}-TY(Carboxymethyl)D[Phe(3-Me)]Y(Carboxymethyl)[Bip]Y(Carboxymethyl)[NMeA][dL][Dab][Cha]VNC[Dab][AEEA][Aun]-OH; thioether N-14) — 2.3-fold lower, 13.9 nM
- Cc1cccc(C[C@@H]2NC(=O)[C@H](CC(=O)O)NC(=O)[C@H](Cc3ccc(OCC(=O)O)cc3)NC(=O)[C@H]([C@@H](C)O)NC(=O)CSC[C@@H](C(=O)N[C@@H](CCCN)C(=O)NCCOCCOCC(=O)NCCCCCCCCCCC(=O)O)NC(=O)[C@H]([C@@H](C)O)NC(=O)[C@H](C(C)C)NC(=O)[C@H](CC3CCCCC3)NC(=O)[C@H](CCN)NC(=O)[C@@H](CC(C)C)NC(=O)[C@H](C)N(C)C(=O)[C@H](Cc3ccc(OCC(=O)O)cc3)NC(=O)[C@H](Cc3ccc(-c4ccccc4)cc3)NC(=O)[C@H](Cc3ccc(OCC(=O)O)cc3)NC2=O)c1 [Example 1371] ({CH2CO}-TY(Carboxymethyl)D[Phe(3-Me)]Y(Carboxymethyl)[Bip]Y(Carboxymethyl)[NMeA][dL][Dab][Cha]VTC[Orn][AEEA][Aun]-OH; thioether N-14) — within 1.5-fold, 27.5 nM
- Cc1cccc(C[C@@H]2NC(=O)[C@H](CC(=O)O)NC(=O)[C@H](Cc3ccc(OCC(=O)O)cc3)NC(=O)[C@H]([C@@H](C)O)NC(=O)CSC[C@@H](C(=O)N[C@@H](CCCN)C(=O)NCCOCCOCC(=O)NCCCCCCCCCCC(=O)O)NC(=O)[C@H](CO)NC(=O)[C@H](C(C)C)NC(=O)[C@H](CC3CCCCC3)NC(=O)[C@H](CCN)NC(=O)[C@@H](CC(C)C)NC(=O)[C@H](C)N(C)C(=O)[C@H](Cc3ccc(OCC(=O)O)cc3)NC(=O)[C@H](Cc3ccc(-c4ccccc4)cc3)NC(=O)[C@H](Cc3ccc(OCC(=O)O)cc3)NC2=O)c1 [Example 1372] ({CH2CO}-TY(Carboxymethyl)D[Phe(3-Me)]Y(Carboxymethyl)[Bip]Y(Carboxymethyl)[NMeA][dL][Dab][Cha]VSC[Orn][AEEA][Aun]-OH; thioether N-14) — within 1.5-fold, 28 nM
- Cc1cccc(C[C@@H]2NC(=O)[C@H](CC(=O)O)NC(=O)[C@H](Cc3ccc(OCC(=O)O)cc3)NC(=O)[C@H]([C@@H](C)O)NC(=O)CSC[C@@H](C(=O)N[C@@H](CCCN)C(=O)NCCOCCOCC(=O)NCCCCCCCCCCC(=O)O)NC(=O)[C@H](CCC(=O)O)NC(=O)[C@H](C(C)C)NC(=O)[C@H](CC3CCCCC3)NC(=O)[C@H](CCN)NC(=O)[C@@H](CC(C)C)NC(=O)[C@H](C)N(C)C(=O)[C@H](Cc3ccc(OCC(=O)O)cc3)NC(=O)[C@H](Cc3ccc(-c4ccccc4)cc3)NC(=O)[C@H](Cc3ccc(OCC(=O)O)cc3)NC2=O)c1 [Example 1373] ({CH2CO}-TY(Carboxymethyl)D[Phe(3-Me)]Y(Carboxymethyl)[Bip]Y(Carboxymethyl)[NMeA][dL][Dab][Cha]VEC[Orn][AEEA][Aun]-OH; thioether N-14) — within 1.5-fold, 31.7 nM
- Cc1cccc(C[C@@H]2NC(=O)[C@H](CC(=O)O)NC(=O)[C@H](Cc3ccc(OCC(=O)O)cc3)NC(=O)[C@H]([C@@H](C)O)NC(=O)CSC[C@@H](C(=O)N[C@@H](CCCN)C(=O)NCCOCCOCC(=O)NCCCCCCCCCCC(=O)O)NC(=O)[C@H](CC(N)=O)NC(=O)[C@H](C(C)C)NC(=O)[C@H](CC3CCCCC3)NC(=O)[C@H](CCN)NC(=O)[C@@H](CC(C)C)NC(=O)[C@H](C)N(C)C(=O)[C@H](Cc3ccc(OCC(=O)O)cc3)NC(=O)[C@H](Cc3ccc(-c4ccccc4)cc3)NC(=O)[C@H](Cc3ccc(OCC(=O)O)cc3)NC2=O)c1 [Example 1374] ({CH2CO}-TY(Carboxymethyl)D[Phe(3-Me)]Y(Carboxymethyl)[Bip]Y(Carboxymethyl)[NMeA][dL][Dab][Cha]VNC[Orn][AEEA][Aun]-OH; thioether N-14) — 1.8-fold lower, 17.4 nM
- Cc1cccc(C[C@@H]2NC(=O)[C@H](CC(=O)O)NC(=O)[C@H](Cc3ccc(OCC(=O)O)cc3)NC(=O)[C@H]([C@@H](C)O)NC(=O)CSC[C@@H](C(=O)N[C@@H](CCN)C(=O)NCCOCCOCC(=O)NCCCCCCCCCCC(=O)O)NC(=O)[C@H](CCCN)NC(=O)[C@H](C(C)C)NC(=O)[C@H](CC3CCCCC3)NC(=O)[C@H](CCC(=O)O)NC(=O)[C@@H](CC(C)C)NC(=O)[C@H](C)N(C)C(=O)[C@H](Cc3ccc(OCC(=O)O)cc3)NC(=O)[C@H](Cc3ccc(-c4ccccc4)cc3)NC(=O)[C@H](Cc3ccc(OCC(=O)O)cc3)NC2=O)c1 [Example 1376] ({CH2CO}-TY(Carboxymethyl)D[Phe(3-Me)]Y(Carboxymethyl)[Bip]Y(Carboxymethyl)[NMeA][dL]E[Cha]V[Orn]C[Dab][AEEA][Aun]-OH; thioether N-14) — within 1.5-fold, 45.8 nM
- Cc1cccc(C[C@@H]2NC(=O)[C@H](CC(=O)O)NC(=O)[C@H](Cc3ccc(OCC(=O)O)cc3)NC(=O)[C@H]([C@@H](C)O)NC(=O)CSC[C@@H](C(=O)N[C@@H](CCN)C(=O)NCCOCCOCC(=O)NCCCCCCCCCCC(=O)O)NC(=O)[C@H](CC(N)=O)NC(=O)[C@H](C(C)C)NC(=O)[C@H](CC3CCCCC3)NC(=O)[C@H](CCC(=O)O)NC(=O)[C@@H](CC(C)C)NC(=O)[C@H](C)N(C)C(=O)[C@H](Cc3ccc(OCC(=O)O)cc3)NC(=O)[C@H](Cc3ccc(-c4ccccc4)cc3)NC(=O)[C@H](Cc3ccc(OCC(=O)O)cc3)NC2=O)c1 [Example 1377] ({CH2CO}-TY(Carboxymethyl)D[Phe(3-Me)]Y(Carboxymethyl)[Bip]Y(Carboxymethyl)[NMeA][dL]E[Cha]VNC[Dab][AEEA][Aun]-OH; thioether N-14) — within 1.5-fold, 31 nM
